Data taken from US8754105B2, “Macrocyclic inhibitors of hepatitis C virus” (Medivir AB, priority 2005, dated 2014).

What was measured:
[1] = molecular target: full-length hepatitis C NS3 protease with NS4A cofactor (Hepatitis C virus genotype 1a (isolate H77) (HCV), UniProt P27958); assay: HCV NS3/4A protease inhibition (enzymatic) assay
Method: The aim of this in vitro assay was to measure the inhibition of HCV NS3/4A protease complexes by the compounds of the present invention.
The inhibition of full-length hepatitis C NS3 protease enzyme was measured essentially as described in Poliakov, 2002 Prot Expression & Purification 25 363 371. Briefly, the hydrolysis of a depsipeptide substrate, Ac-DED(Edans)EEAbuψ[COO]ASK(Dabcyl)-NH2 (AnaSpec, San José, USA), was measured spectrofluorometrically in the presence of a peptide cofactor, [sequence] […] The enzyme (1 nM) was incubated in 50 mM HEPES, pH 7.5, 10 mM DTT, 40% glycerol, 0.1% n-octyl-D-glucoside, with 25 μM NS4A cofactor and inhibitor at 30° C. for 10 min, whereupon the reaction was initiated by addition of 0.5 μM substrate. Inhibitors were dissolved in DMSO, sonicated for 30 sec. and vortexed. The solutions were stored at −20° C. between measurements.
The final concentration of DMSO in the assay sample was adjusted to 3.3%. The rate of hydrolysis was corrected for inner filter effects according to published procedures. […] A minimum of two replicates was performed for all measurements.

[2] = test system: HCV type 1b replicon in Huh-7 luc/neo cells; assay: HCV replicon assay (Huh-Luc cells, luciferase readout); type: cell-based; conditions: Hepatitis C virus, Huh-7, 72 h, three days incubation, luciferase activity
Excerpt: The compounds of formula (I) were examined for activity in the inhibition of HCV RNA replication in a cellular assay. […] The cellular assay was based on a bicistronic expression construct, as described by Lohmann et al. (1999) Science vol. 285 pp. 110-113 with modifications described by Krieger et al. (2001) Journal of Virology 75: 4614-4624, in a multi-target screening strategy. In essence, the method was as follows.
The assay utilized the stably transfected cell line Huh-7 luc/neo (hereafter referred to as Huh-Luc). This cell line harbors an RNA encoding a bicistronic expression construct comprising the wild type NS3-NS5B regions of HCV type 1b translated from an Internal Ribosome Entry Site (IRES) from encephalomyocarditis virus (EMCV), preceded by a reporter portion (FfL-luciferase), and a selectable marker portion (neo^R, neomycine phosphotransferase). The construct is bordered by 5′ and 3′ NTRs (non-translated regions) from HCV type 1b. Continued culture of the replicon cells in the presence of G418 (neo^R) is dependent on the replication of the HCV RNA. The stably transfected replicon cells that express HCV RNA, which replicates autonomously and to high levels, encoding inter alia luciferase, are used for screening the antiviral compounds.
The replicon cells were plated in 384 well plates in the presence of the test and control compounds which were added in various concentrations. Following an incubation of three days, HCV replication was measured by assaying luciferase activity (using standard luciferase assay substrates and reagents and a Perkin Elmer ViewLux™ ultraHTS microplate imager). Replicon cells in the control cultures have high luciferase expression in the absence of any inhibitor. The inhibitory activity of the compound on luciferase activity was monitored on the Huh-Luc cells, enabling a dose-response curve for each test compound.

full-length hepatitis C NS3 protease with NS4A cofactor, sequence (P27958 1027-1657): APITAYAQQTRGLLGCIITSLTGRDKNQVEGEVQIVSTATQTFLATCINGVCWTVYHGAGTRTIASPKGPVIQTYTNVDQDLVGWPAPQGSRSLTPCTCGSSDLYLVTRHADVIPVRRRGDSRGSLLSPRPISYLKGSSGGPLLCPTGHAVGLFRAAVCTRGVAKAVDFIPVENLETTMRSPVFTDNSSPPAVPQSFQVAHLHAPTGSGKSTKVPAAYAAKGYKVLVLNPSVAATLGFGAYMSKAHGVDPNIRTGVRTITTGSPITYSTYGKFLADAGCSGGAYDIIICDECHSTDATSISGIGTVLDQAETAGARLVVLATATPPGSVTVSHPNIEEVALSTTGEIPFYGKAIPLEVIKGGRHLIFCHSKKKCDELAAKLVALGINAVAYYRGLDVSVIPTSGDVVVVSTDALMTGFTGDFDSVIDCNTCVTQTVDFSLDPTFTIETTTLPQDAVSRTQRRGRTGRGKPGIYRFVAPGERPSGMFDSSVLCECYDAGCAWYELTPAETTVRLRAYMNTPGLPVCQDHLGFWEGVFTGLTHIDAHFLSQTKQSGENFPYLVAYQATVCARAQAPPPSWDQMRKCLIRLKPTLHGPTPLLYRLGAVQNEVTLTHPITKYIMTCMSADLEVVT

Structure (SMILES) | Ki [1] [µM] | EC50 [2] [µM]
COc1ccc2c(O[C@@H]3C[C@H]4C(=O)N[C@]5(C(=O)O)C[C@H]5/C=C\CCCCOC(=O)N4C3)nc(Cl)cc2c1 [Compound 16, 17-(3-chloro-6-methoxyisoquinolin-1-yloxy)-2,14-dioxo-3,15-diaza-13-oxatricyclo[13.3.0.0^4,6]octadec-7-ene-4-carboxylic acid] | 1 | > 10
COc1ccc2c(O[C@@H]3C[C@H]4C(=O)N[C@]5(C(=O)NS(=O)(=O)C6CC6)C[C@H]5/C=C\CCCCOC(=O)N4C3)nc(Cl)cc2c1 [Compound 17, N-[17-(3-chloro-6-methoxyisoquinolin-1-yloxy)-2,14-dioxo-3,15-diaza-13-oxatricyclo[13.3.0.0^4,6]octadec-7-ene-4-carbonyl](cyclopropyl) sulfonamide] | 0.043 | > 10
COc1ccc2c(O[C@@H]3C[C@H]4C(=O)N[C@]5(C(=O)O)C[C@H]5/C=C\CCCCOC(=O)N4C3)cc(-c3ccccc3)nc2c1 [Compound 22, 17-(7-methoxy-2-phenylquinolin-4-yloxy)-2,14-dioxo-3,15-diaza-13-oxatricyclo[13.3.0.0^4,6]octadec-7-ene-4-carboxylic acid] | 1.07 | > 10
COc1ccc2c(O[C@@H]3C[C@H]4C(=O)N[C@]5(C(=O)NS(=O)(=O)C6CC6)C[C@H]5/C=C\CCCCOC(=O)N4C3)cc(-c3ccccc3)nc2c1 [Compound 23, N-[17-(7-methoxy-2-phenylquinolin-4-yloxy)-2,14-dioxo-3,15-diaza-13-oxatricyclo[13.3.0.0^4,6]octadec-7-ene-4-carbonyl](cyclopropyl)-sulfonamide] | 0.0002 | 1.08
COc1ccc2c(O[C@@H]3C[C@H]4C(=O)N[C@]5(C(=O)O)C[C@H]5/C=C\CCCCCOC(=O)N4C3)cc(-c3ccccc3)nc2c1 [Compound 24, 18-(7-methoxy-2-phenylquinolin-4-yloxy)-2,15-dioxo-3,16-diaza-14-oxatricyclo[14.3.0.0^4,6]nonadec-7-ene-4-carboxylic acid] | 0.04 | > 10
COc1ccc2c(O[C@@H]3C[C@H]4C(=O)N[C@]5(C(=O)NS(=O)(=O)C6CC6)C[C@H]5/C=C\CCCCCOC(=O)N4C3)cc(-c3ccccc3)nc2c1 [Compound 25, N-[18-(7-methoxy-2-phenylquinolin-4-yloxy)-2,15-dioxo-3,16-diaza-14-oxatricyclo[14.3.0.0^4,6]nonadec-7-ene-4-carbonyl](cyclopropyl)-sulfonamide] | 0.0024 | 0.481
